Results as given in PMC7351617 (Journal of neurochemistry, 2020).

System: rat adrenal chromaffin cells (native α3β4* / α3β2β4 nAChRs)

CC[C@H](C)[C@@H]1NC(=O)[C@@H]2CCCN2C(=O)[C@H](CO)NC(=O)[C@H](CCSC)NC(=O)[C@H](C)NC(=O)[C@H](CO)NC(=O)[C@@H]2CSSC[C@H](NC(=O)CN)C(=O)N[C@@H](CSSC[C@@H](C(N)=O)NC1=O)C(=O)N[C@@H](CO)C(=O)N[C@@H](Cc1c[nH]cn1)C(=O)N1CCC[C@H]1C(=O)N[C@@H](C(C)C)C(=O)N2 [TxID]
Hill slope: −1.1 | inhibition of the ACh-evoked currents: ~ 97% | IC50 (36 h): 7 nM | ACh-evoked current amplitude in the presence of TxID (SD): −50 ± 24 pA | ACh-evoked current amplitude in the presence of TxID alone (SD): −45 ± 26 pA | ACh-evoked currents in the presence of TxID, % of controls (SD): 3 ± 1%
